The record followed here is patent publication US20230310421A1, “MOLECULES FOR USE IN THE TREATMENT OF VIRAL INFECTIONS” (priority 2020, published 2023).

Experiment [1] has as its system L929 cells. Briefly: Macrophage extrinsic cytotoxic activity (ECT): supernatant of MHV-infected BMDM on L929 cells, CellTiter-Glo / live imaging. To be noted: L929 cells exposed to supernatant from MOI 0.1-infected BMDM. (In general: In ATP-based viability assays light output follows the ATP content of the culture.)
The test system of experiment [2] is MHV-A59. Briefly: Direct (intrinsic) antiviral activity: survival, titer and syncitia formation in L929, BMDMs and LA4 cells. The class given is cell-based, Murine Hepatitis Virus.

For JAK inhibitor I, the “effect on ECT (viability in uninfected cells)” value in experiment [1] was “no effect”. For the same compound, in experiment [2], the “effect on DDP rescue of cell viability of infected L929 cells” value is “No effect”.
Consider `N[C@H]1CC[C@H](N[C@@H]2C[C@H]2c2ccccc2)CC1` [Ory1001], for which, in experiment [2] (drug applied directly on infected L929 cells), the intrinsic antiviral activity entry was “elicited intrinsic antiviral activity”.
